Data from ChEMBL document CHEMBL1147193, “New 5-substituted thiazolo[3,2-b][1,2,4]triazol-6-ones: synthesis and anticancer evaluation” (2007).

How the values were obtained:
Assay type in all cases: functional
[1] = test system: OVCAR-3; experiment: Growth inhibition of human OVCAR-3 cells after 48 hrs by SRB protein assay; details: OVCAR-3, 48 h
[2] = test system: OVCAR-4; experiment: Growth inhibition of human OVCAR4 cells after 48 hrs by SRB protein assay; details: OVCAR-4, 48 h
[3] = test system: OVCAR-5; experiment: Growth inhibition of human OVCAR5 cells after 48 hrs by SRB protein assay; details: OVCAR-5, 48 h
[4] = test system: OVCAR-8; experiment: Growth inhibition of human OVCAR8 cells after 48 hrs by SRB protein assay; details: OVCAR-8, 48 h
[5] = test system: ACHN; experiment: Growth inhibition of human ACHN cells after 48 hrs by SRB protein assay
[6] = test system: A549; experiment: Growth inhibition of human A549/ATCC cells after 48 hrs by SRB protein assay; details: A549, 48 h
[7] = test system: CCRF-CEM; experiment: Growth inhibition of human CCRF-CEM cells after 48 hrs by SRB protein assay
[8] = test system: SW-620; experiment: Growth inhibition of human SW620 cells after 48 hrs by SRB protein assay; details: SW-620, 48 h
[9] = test system: BT-549; experiment: Growth inhibition of human BT549 cells after 48 hrs by SRB protein assay; details: BT-549, 48 h
[10] = test system: Hs-578T; experiment: Growth inhibition of human HS578T cells after 48 hrs by SRB protein assay
[11] = test system: RPMI-8226; experiment: Growth inhibition of human RPMI8226 cells after 48 hrs by SRB protein assay; details: RPMI-8226, 48 h
[12] = test system: NCI-H460; experiment: Anticancer activity against human NCI-H460 cells assessed as growth of cells at 100 uM relative to untreated cells
[13] = test system: MCF7; experiment: Anticancer activity against human MCF7 cells assessed as growth of cells at 100 uM relative to untreated cells
[14] = test system: HOP-62; experiment: Growth inhibition of human HOP62 cells after 48 hrs by SRB protein assay; details: HOP-62, 48 h
[15] = test system: NCI-H226; experiment: Growth inhibition of human NCI-H226 cells after 48 hrs by SRB protein assay; details: NCI-H226, 48 h
[16] = test system: NCI-H322M; experiment: Growth inhibition of human NCI-H322M cells after 48 hrs by SRB protein assay
[17] = test system: NCI-H460; experiment: Growth inhibition of human NCI-H460 cells after 48 hrs by SRB protein assay; details: NCI-H460, 48 h
[18] = test system: NCI-H522; experiment: Growth inhibition of human NCI-H522 cells after 48 hrs by SRB protein assay; details: NCI-H522, 48 h
[19] = test system: COLO 205; experiment: Growth inhibition of human COLO205 cells after 48 hrs by SRB protein assay; details: COLO 205, 48 h
[20] = test system: HCC 2998; experiment: Growth inhibition of human HCC2998 cells after 48 hrs by SRB protein assay; details: HCC 2998, 48 h
[21] = test system: HCT-116; experiment: Growth inhibition of human HCT116 cells after 48 hrs by SRB protein assay; details: HCT-116, 48 h
[22] = test system: HT-29; experiment: Growth inhibition of human HT29 cells after 48 hrs by SRB protein assay; details: HT-29, 48 h
[23] = test system: KM12; experiment: Growth inhibition of human KM12 cells after 48 hrs by SRB protein assay; details: KM12, 48 h
[24] = test system: SF-295; experiment: Growth inhibition of human SF295 cells after 48 hrs by SRB protein assay; details: SF-295, 48 h
[25] = test system: U-251; experiment: Growth inhibition of human U251 cells after 48 hrs by SRB protein assay; details: U-251, 48 h
[26] = Growth inhibition of human MALME 3M cells after 48 hrs by SRB protein assay
[27] = test system: M14; experiment: Growth inhibition of human M14 cells after 48 hrs by SRB protein assay; details: M14, 48 h
[28] = test system: SK-MEL-2; experiment: Growth inhibition of human SK-MEL-2 cells after 48 hrs by SRB protein assay; details: SK-MEL-2, 48 h
[29] = test system: SK-MEL-28; experiment: Growth inhibition of human SK-MEL-28 cells after 48 hrs by SRB protein assay; details: SK-MEL-28, 48 h
[30] = test system: SK-MEL-5; experiment: Growth inhibition of human SK-MEL-5 cells after 48 hrs by SRB protein assay; details: SK-MEL-5, 48 h
[31] = test system: UACC-257; experiment: Growth inhibition of human UACC257 cells after 48 hrs by SRB protein assay; details: UACC-257, 48 h
[32] = test system: TK-10; experiment: Growth inhibition of human TK10 cells after 48 hrs by SRB protein assay; details: TK-10, 48 h
[33] = test system: UO-31; experiment: Growth inhibition of human UO31 cells after 48 hrs by SRB protein assay; details: UO-31, 48 h
[34] = test system: SN12C; experiment: Growth inhibition of human SN12C cells after 48 hrs by SRB protein assay
[35] = test system: PC-3; experiment: Growth inhibition of human PC3 cells after 48 hrs by SRB protein assay; details: PC-3, 48 h
[36] = test system: MCF7; experiment: Growth inhibition of human MCF7 cells after 48 hrs by SRB protein assay; details: MCF7, 48 h
[37] = test system: NCI/ADR-RES; experiment: Growth inhibition of human NCI/ADR-RES cells after 48 hrs by SRB protein assay
[38] = test system: MDA-MB-435; experiment: Growth inhibition of human MDA-MB-435 cells after 48 hrs by SRB protein assay; details: MDA-MB-435, 48 h
[39] = test system: T47D; experiment: Growth inhibition of human T47D cells after 48 hrs by SRB protein assay
[40] = Growth inhibition of human MDA-MB-231/ATCC cells after 48 hrs by SRB protein assay; details: MDA-MB-231, 48 h

SMILES: O=C(CC1Sc2ncnn2C1=O)Nc1ccc(Cl)cc1 (stereo not drawn)
- GI50 [1]: 21.9 µM
- TGI ([1]; read-out: Log TGI (converted)): 51.3 µM
- GI50 [2]: 31.6 µM
- TGI ([2]; read-out: Log TGI (converted)): 83.2 µM
- GI50 [3]: 22.4 µM
- TGI ([3]; read-out: Log TGI (converted)): 56.2 µM
- GI50 [4]: > 100 µM
- TGI ([4]; read-out: Log TGI (converted)): > 100 µM
- GI50 [5]: 17.4 µM
- TGI ([5]; read-out: Log TGI (converted)): 30.9 µM
- GI50 [6]: > 100 µM
- TGI ([6]; read-out: Log TGI (converted)): > 100 µM
- GI50 [7]: 19.1 µM
- TGI ([7]; read-out: Log TGI (converted)): 41.7 µM
- GI50 [8]: 32.4 µM
- TGI ([8]; read-out: Log TGI (converted)): 79.4 µM
- GI50 [9]: 37.2 µM
- TGI ([9]; read-out: Log TGI (converted)): 95.5 µM
- GI50 [10]: > 100 µM
- TGI ([10]; read-out: Log TGI (converted)): > 100 µM
- GI50 [11]: 24 µM
- TGI ([11]; read-out: Log TGI (converted)): 100 µM
- Activity [12]: 0%
- Activity [13]: 0%
- GI50 [14]: > 100 µM
- TGI ([14]; read-out: Log TGI (converted)): > 100 µM
- GI50 [15]: 91.2 µM
- TGI ([15]; read-out: Log TGI (converted)): > 100 µM
- GI50 [16]: > 100 µM
- TGI ([16]; read-out: Log TGI (converted)): > 100 µM
- GI50 [17]: > 100 µM
- TGI ([17]; read-out: Log TGI (converted)): > 100 µM
- GI50 [18]: 26.9 µM
- TGI ([18]; read-out: Log TGI (converted)): 64.6 µM
- GI50 [19]: 19.5 µM
- TGI ([19]; read-out: Log TGI (converted)): 47.9 µM
- GI50 [20]: 38 µM
- TGI ([20]; read-out: Log TGI (converted)): > 100 µM
- GI50 [21]: 20 µM
- TGI ([21]; read-out: Log TGI (converted)): 30.9 µM
- GI50 [22]: 28.8 µM
- TGI ([22]; read-out: Log TGI (converted)): 75.9 µM
- GI50 [23]: > 100 µM
- TGI ([23]; read-out: Log TGI (converted)): > 100 µM
- GI50 [24]: > 100 µM
- TGI ([24]; read-out: Log TGI (converted)): > 100 µM
- GI50 [25]: 18.2 µM
- TGI ([25]; read-out: Log TGI (converted)): 33.9 µM
- GI50 [26]: 14.8 µM
- TGI ([26]; read-out: Log TGI (converted)): 38.9 µM
- GI50 [27]: 35.5 µM
- TGI ([27]; read-out: Log TGI (converted)): > 100 µM
- GI50 [28]: > 100 µM
- TGI ([28]; read-out: Log TGI (converted)): > 100 µM
- GI50 [29]: 22.9 µM
- TGI ([29]; read-out: Log TGI (converted)): 57.5 µM
- GI50 [30]: > 100 µM
- TGI ([30]; read-out: Log TGI (converted)): > 100 µM
- GI50 [31]: 40.7 µM
- TGI ([31]; read-out: Log TGI (converted)): > 100 µM
- GI50 [32]: 20.9 µM
- TGI ([32]; read-out: Log TGI (converted)): 39.8 µM
- GI50 [33]: 22.9 µM
- TGI ([33]; read-out: Log TGI (converted)): 45.7 µM
- GI50 [34]: 22.9 µM
- TGI ([34]; read-out: Log TGI (converted)): 53.7 µM
- GI50 [35]: 55 µM
- TGI ([35]; read-out: Log TGI (converted)): > 100 µM
- GI50 [36]: 43.7 µM
- TGI ([36]; read-out: Log TGI (converted)): > 100 µM
- GI50 [37]: 38 µM
- TGI ([37]; read-out: Log TGI (converted)): > 100 µM
- GI50 [38]: 55 µM
- TGI ([38]; read-out: Log TGI (converted)): > 100 µM
- GI50 [39]: 24 µM
- TGI ([39]; read-out: Log TGI (converted)): 61.7 µM
- GI50 [40]: 31.6 µM
- TGI ([40]; read-out: Log TGI (converted)): 83.2 µM
